Reference: patent US7160893B2, “Pyrimidine-2,4-dione derivatives as matrix metalloproteinase inhibitors” (Warner-Lambert Company, priority 2002, dated 2007)
Where two headings read alike, the source gives them in different places.

Target: MMP-13 catalytic domain (Homo sapiens, UniProt P45452)
Test: Inhibition of MMP-13 catalytic domain (thiopeptolide substrate hydrolysis assay)
Format: biochemical
Source text: The assays measure the amount by which a test compound reduces the hydrolysis of a thiopeptolide substrate catalyzed by a matrix metalloproteinase enzyme. Such assays are described in detail by Ye et al., in Biochemistry, 1992;31(45):11231–11235, which is incorporated herein by reference. One such assay is described below in Biological Method 1.
Thiopeptolide substrates show virtually no decomposition or hydrolysis at or below neutral pH in the absence of a matrix metalloproteinase enzyme. A typical thiopeptolide substrate commonly utilized for assays is Ac-Pro-Leu-Gly-thioester-Leu-Leu-Gly-OEt. A 100 μL assay mixture will contain 50 mM of N-2-hydroxyethylpiperazine-N′-2-ethanesulfonic acid buffer (“HEPES,” pH 7.0), 10 mM CaCl2, 100 μM thiopeptolide substrate, and 1 mM 5,5′-dithio-bis-(2-nitro-benzoic acid) (DTNB). The thiopeptolide substrate concentration may be varied, for example from 10 to 800 μM to obtain Km and Kcat values. The change in absorbance at 405 nm is monitored on a Thermo Max microplate reader (molecular Devices, Menlo Park, Calif.) at room temperature (22° C.). The calculation of the amount of hydrolysis of the thiopeptolide substrate is based on E412=13600 M^−1 cm^−1 for the DTNB-derived product 3-carboxy-4-nitrothiophenoxide. Assays are carried out with and without matrix metalloproteinase inhibitor compounds, and the amount of hydrolysis is compared for a determination of inhibitory activity of the test compounds.
Test compounds were evaluated at various concentrations in order to determine their respective IC50 values, the micromolar concentration of compound required to cause a 50% inhibition of catalytic activity of the respective enzyme.
Some representative compounds of Formula I have been evaluated for their ability to inhibit MMP-13. Inhibitor activity versus other MMPs with the compounds may be determined using, for example, MMP-1FL, which refers to full length interstitial collagenase; MMP-2FL, which refers to full length Gelatinase A; MMP-3CD, which refers to the catalytic domain of stromelysin; MMP-7FL, which refers to full length matrilysin; MMP-9FL, which refers to full length Gelatinase B; MMP-13CD, which refers to the catalytic domain of collagenase 3; and MMP-14CD, which refers to the catalytic domain of MMP-14. Test compounds can be evaluated at various concentrations in order to determine their respective IC50 values, the micromolar concentration of compound required to cause a 50% inhibition of the hydrolytic activity of the respective enzyme.

[1] = compounds of Example 33, Biological Table 1, read-out: MMP-13CD IC50
[2] = values in text, given as about, read-out: IC50 with MMP-13 catalytic domain

SMILES	IC50 [1] [µM]	IC50 [2] [µM]
Cc1c(SCc2ccccc2-c2ccccc2)[nH]c(=O)n(Cc2ccccc2)c1=O [Example 33u, 3-Benzyl-6-(biphenyl-2-ylmethylsulfanyl)-5-methyl-1 H-pyrimidine-2,4-dione]	> 100	
Cc1c(SCC(=O)c2ccc(-c3ccccc3)cc2)n(C)c(=O)n(Cc2ccccc2)c1=O [Example 33f, 3-Benzyl-6-(2-biphenyl-4-yl-2-oxo-ethylsulfanyl)-1,5-dimethyl-1H-pyrimidine-2,4-dione]	> 100	
COc1ccc(-c2cc(CSc3[nH]c(=O)n(Cc4ccccc4)c(=O)c3C)on2)cc1 [Example 7, 3-Benzyl-6-[3-(4-methoxy-phenyl)-isoxazol-5-ylmethylsulfanyl]-5-methyl-1H-pyrimidine-2,4-dione]		~0.44
Cc1c(SCc2ccc3ccccc3c2)n(C)c(=O)n(Cc2ccccc2)c1=O [Example 33e, 3-Benzyl-1,5-dimethyl-6-(naphthalen-2-ylmethylsulfanyl)-1H-pyrimidine-2,4-dione]	> 100	
Cc1c(SCc2ccc3nc(C(F)(F)F)cc(Cl)c3c2)n(C)c(=O)n(Cc2ccccc2)c1=O [Example 33b, 3-Benzyl-6-(4-chloro-2-trifluoromethyl-quinolin-6-ylmethylsulfanyl)-1,5-dimethyl-1H-pyrimidine-2,4-dione]	> 100	
Cc1c(SCc2ccccc2-c2ccccc2)n(C)c(=O)n(Cc2ccccc2)c1=O [Example 33g, 3-Benzyl-6-(biphenyl-2-ylmethylsulfanyl)-1,5-dimethyl-1 H-pyrimidine-2,4-dione]	> 100	
Cc1c(SCCCCOc2ccccc2)[nH]c(=O)n(Cc2ccccc2)c1=O [Example 33s, 3-Benzyl-5-methyl-6-(4-phenoxy-butylsulfanyl)-1H-pyrimidine-2,4-dione]	> 100	
Cc1c(SCCC(=O)c2ccc(F)cc2)[nH]c(=O)n(Cc2ccccc2)c1=O [Example 33n, 3-Benzyl-6-[3-(4-fluoro-phenyl)-3-oxo-propylsulfanyl]-5-methyl-1H-pyrimidine-2,4-dione]	> 30	
COc1ccc2nc(Nc3[nH]c(=O)n(Cc4ccccc4)c(=O)c3C)sc2c1 [Example 29, 3-Benzyl-6-(6-methoxy-benzothiazol-2-ylamino)-5-methyl-1H-pyrimidine-2,4-dione]		~0.44
Cc1c(SCCCc2ccccc2)n(C)c(=O)n(Cc2ccccc2)c1=O [Example 33c, 3-Benzyl-1,5-dimethyl-6-(3-phenyl-propylsulfanyl)-1H-pyrimidine-2,4-dione]	> 100	
Cc1c(SCCCc2ccccc2)[nH]c(=O)n(Cc2ccccc2)c1=O [Example 33m, 3-Benzyl-5-methyl-6-(3-phenyl-propylsulfanyl)-1H-pyrimidine-2,4-dione]	> 100	
Cc1c(SCc2nc3ccccc3[nH]2)[nH]c(=O)n(Cc2ccccc2)c1=O [Example 33q, 6-(1H-Benzimidazol-2-ylmethylsulfanyl)-3-benzyl-5-methyl-1H-pyrimidine-2,4-dione]	> 100	
Cc1c(SCCCC(=O)c2ccc(Br)cc2)[nH]c(=O)n(Cc2ccccc2)c1=O [Example 33r, 3-Benzyl-6-[4-(4-bromo-phenyl)-4-oxo-butylsulfanyl]-5-methyl-1H-pyrimidine-2,4-dione]	> 100	
Cc1onc(-c2ccccc2)c1C(=O)CSc1[nH]c(=O)n(Cc2ccccc2)c(=O)c1C [Example 33j, 3-Benzyl-5-methyl-6-[2-(5-methyl-3-phenyl-isoxazol-4-yl)-2-oxo-ethylsulfanyl]-1H-pyrimidine-2,4-dione]	23	
COc1ccc(C(=O)CSc2[nH]c(=O)n(Cc3ccccc3)c(=O)c2C)cc1 [Example 33v, 3-Benzyl-6-[2-(4-methoxy-phenyl)-2-oxo-ethylsulfanyl]-5-methyl-1H-pyrimidine-2,4-dione]	18	
Cc1c(SCCOc2ccc(F)cc2)n(C)c(=O)n(Cc2ccccc2)c1=O [Example 33a, 3-Benzyl-6-[2-(4-fluoro-phenoxy)-ethylsulfanyl]-1,5-dimethyl-1H-pyrimidine-2,4-dione]	> 100	
Cc1c(SCC(=O)c2cc(-c3ccc(Cl)cc3Cl)no2)[nH]c(=O)n(Cc2ccccc2)c1=O [Example 33t, 3-Benzyl-6-{2-[3-(2,4-dichloro-phenyl)-isoxazol-5-yl]-2-oxo-ethylsulfanyl}-5-methyl-1H-pyrimidine-2,4-dione]	> 30	
Cc1c(SCc2cc(-c3ccc(Cl)cc3)no2)[nH]c(=O)n(Cc2ccccc2)c1=O [Example 20, 3-Benzyl-6-[3-(4-chloro-phenyl)-isoxazol-5-ylmethylsulfanyl]-5-methyl-1H-pyrimidine-2,4-dione]		~1.2
Cc1c(SCc2ccc3nc(C(F)(F)F)cc(Cl)c3c2)[nH]c(=O)n(Cc2ccccc2)c1=O [Example 33i, 3-Benzyl-6-(4-chloro-2-trifluoromethyl-quinolin-6-ylmethylsulfanyl)-5-methyl-1H-pyrimidine-2,4-dione]	> 100	
Cc1c(SCC(=O)c2cc(-c3ccccc3)no2)[nH]c(=O)n(Cc2ccccc2)c1=O [Example 33l, 3-Benzyl-5-methyl-6-[2-oxo-2-(3-phenyl-isoxazol-5-yl)-ethylsulfanyl]-1H-pyrimidine-2,4-dione]	> 30	
Cc1c(SCC(=O)c2ccc(-c3ccccc3)cc2)[nH]c(=O)n(Cc2ccccc2)c1=O [Example 33p, 3-Benzyl-6-(2-biphenyl-4-yl-2-oxo-ethylsulfanyl)-5-methyl-1H-pyrimidine-2,4-dione]	> 30	
COc1ccc2nc(CSc3[nH]c(=O)n(Cc4ccccc4)c(=O)c3C)c(=O)oc2c1 [Example 33k, 3-Benzyl-6-(7-methoxy-2-oxo-2H-1,4-benzoxazin-3-ylmethylsulfanyl)-5-methyl-1H-pyrimidine-2,4-dione]	> 30	
Cc1c(SCCC(=O)c2ccc(F)cc2)n(C)c(=O)n(Cc2ccccc2)c1=O [Example 33d, 3-Benzyl-6-[3-(4-fluoro-phenyl)-3-oxo-propylsulfanyl]-1,5-dimethyl-1H-pyrimidine-2,4-dione]	> 100	
Cc1c(SCc2cc(-c3ccc(Cl)cc3)on2)[nH]c(=O)n(Cc2ccccc2)c1=O [Example 6, 3-Benzyl-6-[5-(4-chloro-phenyl)-isoxazol-3-ylmethylsulfanyl]-5-methyl-1H-pyrimidine-2,4-dione]		~2.1
COc1ccc(C(=O)CSc2c(C)c(=O)n(Cc3ccccc3)c(=O)n2C)cc1 [Example 33h, 3-Benzyl-6-[2-(4-methoxy-phenyl)-2-oxo-ethylsulfanyl]-1,5-dimethyl-1H-pyrimidine-2,4-dione]	> 100	
Cc1c(SCc2ccc3ccccc3c2)[nH]c(=O)n(Cc2ccccc2)c1=O [Example 33o, 3-Benzyl-5-methyl-6-(naphthalen-2-ylmethylsulfanyl)-1H-pyrimidine-2,4-dione]	> 100	
